The values below come from US20170216251A1, “USE OF (+)-1-(3,4-DICHLOROPHENYL)-3-AZABICYCLO[3.1.0]HEXANE TO TREAT ADDICTIVE AND ALCOHOL-RELATED DISORDERS” (priority 2011, published 2017).

In data set [1] the test system is alcohol-preferring (P) rat. Kind of data set: binge operant responding experiment in alcohol-preferring (P) rats. In kind it is in vivo. On the procedure: P rats were obtained from the Alcohol Research Center at Indiana University School of Medicine. Male P rats were used in all experiments, and were approximately 4-5 months of age and weighed between 420 and 580 g at the outset. Animals were housed individually at an ambient temperature of 21° C., with a normal 12 hour light/dark cycle. All rats were provided ad libitum access to food and water, except during training for operant self-administration studies, during which rats were fluid deprived 23 hr daily during the first 5 days of the training phase. Thereafter, these animals were maintained on ad libitum food and water. All training and experimental sessions for all subjects took place between 9 a.m. and 5 p.m. […] Deionized water was administered as the control injection. Behavioral testing was conducted in standard operant chambers (Coulbourn Instruments, Allentown, Pa.) equipped with two removable levers and two dipper fluid delivery systems enclosed in sound-attenuated cubicles as previously described (Cook et al., 2004). All dipper presentations provided a 1.5-sec access to a 0.1-ml dipper, followed by a 3-sec time out period. […] Responses and reinforcements were recorded and controlled using the 4.0 Coulbourn […] operant software package. […]

Data set [2] has as its system high-alcohol preferring (HAP) mouse. Kind of data set: binge operant responding experiment in high-alcohol preferring (HAP) mice. In kind it is in vivo. The note with it: intraperitoneal 25, 50 or 75 mg/kg, FIG. 2. On the procedure: The efficacy of (+)-1-(3,4-dichlorophenyl)-3-azabicyclo[3.1.0]hexane to reduce alcohol-drinking behavior was evaluated in the genetically selected high-alcohol preferring (HAP) mouse, an animal model for human alcohol abuse. The effects of (+)-1-(3,4-dichlorophenyl)-3-azabicyclo[3.1.0]hexane on HAP mice were examined in a binge operant responding experiment, using standard protocols.
HAP mice were obtained from the Alcohol Research Center at Indiana University School of Medicine. Animals were housed individually at an ambient temperature of 21° C., with a normal 12 hour light/dark cycle. […]
Behavioral testing was conducted in standard operant chambers (Coulbourn Instruments, Allentown, Pa.) equipped with two removable levers and two dipper fluid delivery systems enclosed in sound-attenuated cubicles as previously described (Cook et al., 2004). […] Responses and reinforcements were recorded and controlled using the 4.0 Coulbourn L2T2 operant software package. […]
For the alcohol and sucrose maintained responding studies, (+)-1-(3,4-dichlorophenyl)-3-azabicyclo[3.1.0]hexane [25, 50, or 75 mg/kg] was injected into each HAP mouse, followed by immediate placement in an operant chamber. […] Six HAP mice were evaluated with each concentration of (+)-1-(3,4-dichlorophenyl)-3-azabicyclo[3.1.0]hexane [25, 50, or 75 mg/kg].

For another data set, the system named is kidney tubules. The note with it: cynomolgus monkeys; Guha et al., 2011; cited from earlier work.
The conditions of data set [3]: Phase II, compared to placebo; Sepracor Press Release 2009; cited from earlier work.
The next data set deals with T1, serotonin transporter (Homo sapiens, UniProt P31645).
T1 construct: host or cells: in vivo brain (PET)
T1 sequence (P31645 whole entry): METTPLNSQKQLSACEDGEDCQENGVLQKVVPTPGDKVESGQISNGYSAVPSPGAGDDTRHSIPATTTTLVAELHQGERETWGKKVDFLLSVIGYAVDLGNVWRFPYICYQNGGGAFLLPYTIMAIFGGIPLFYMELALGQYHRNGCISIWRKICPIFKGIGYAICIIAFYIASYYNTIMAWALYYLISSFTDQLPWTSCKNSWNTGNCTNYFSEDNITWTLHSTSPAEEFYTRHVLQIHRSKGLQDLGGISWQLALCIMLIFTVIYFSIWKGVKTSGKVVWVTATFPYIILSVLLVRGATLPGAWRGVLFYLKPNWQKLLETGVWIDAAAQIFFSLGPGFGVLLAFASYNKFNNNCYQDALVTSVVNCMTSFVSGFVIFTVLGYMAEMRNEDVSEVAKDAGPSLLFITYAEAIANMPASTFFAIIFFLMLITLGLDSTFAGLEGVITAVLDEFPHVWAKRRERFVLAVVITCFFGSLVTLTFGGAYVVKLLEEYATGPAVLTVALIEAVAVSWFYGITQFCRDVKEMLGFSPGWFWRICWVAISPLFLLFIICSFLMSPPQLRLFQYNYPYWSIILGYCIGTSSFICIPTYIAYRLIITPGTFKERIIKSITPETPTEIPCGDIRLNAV
The note with it: PET occupancy study at the doses examined; DeLorenzo et al., 2011; cited from earlier work.

A further data set has as its system Parkinson's Disease. The conditions noted are these: Phase II clinical trial; Rascol et al., 2008; cited from earlier work.
The conditions of data set [4]: trial for use in weight loss; Astrup et al., 2008; cited from earlier work.
For data set [5] the following is noted: patients with a preexisting cardiovascular condition, FDA News Release 2010, James et al.; cited from earlier work.

“Also recorded” adds a separate entry of the source.

On to `Clc1ccc([C@]23CNC[C@H]2C3)cc1Cl` [(+)-1-(3,4-dichlorophenyl)-3-azabicyclo[3.1.0]hexane], for which, in data set [1] (P rats maintained on sucrose water, oral 3.1-50 mg/kg, 90 min operant session, FIG. 1B), the “effect on sucrose consumption (sucrose maintained responding)” value was “lack of effect”. In addition, in data set [1] (P rats, oral 3.1, 6.3, 12.5, 25 or 50 mg/kg 25 min before 90 min operant session, EtOH 10% v/v, FR4, FIG. 1A), the “effect on ethanol consumption (alcohol maintained responding)” value is reported as “demonstrates a dose response; also recorded: decrease in alcohol consumption that was dose-dependent”. The “effect on sucrose consumption (control sucrose responding)” value in data set [2] (HAP mice maintained on sucrose water) is reported as “lack of effect”. Moreover, the “effect on alcohol consumption (ethanol responding)” value in data set [2] (HAP mice, 90 min operant session, EtOH 10% v/v, FR4) is given as “demonstrates a dose response; also recorded: dose-dependent decrease in alcohol consumption”.
On to `CNC[C@H](c1ccc2ccccc2c1)[C@H](O)c1ccccc1` [PRC200-SS], for which the nephrotoxicity entry with kidney tubules was “acute degenerative damage of kidney tubules”.
In the case of `N[C@@H]1CC[C@@H](c2ccc(Cl)c(Cl)c2)c2ccccc21` [SEP-225289], the “primary efficacy endpoint as antidepressant” value in data set [3] is “did not meet the primary efficacy endpoint compared to placebo”. For the same compound, the serotonin transporter occupancy result at serotonin transporter is “too low at the doses examined to produce an antidepressant effect”.
For `CCOC[C@@H]1[C@@H](c2ccc(Cl)c(Cl)c2)C[C@@H]2CC[C@H]1N2C` [Tensofensine], in the data set with Parkinson's Disease, the “efficacy in treatment of Parkinson's Disease” value is “not be efficacious”. Also, the adverse events entry in data set [4] is reported as “gastrointestinal adverse events (dry mouth, nausea, abdominal pain, constipation, diarrhea)”.
As for `CC(C)CC(N(C)C)C1(c2ccc(Cl)cc2)CCC1` (stereo not shown) [sibutramine], in data set [5], the “risk of serious heart events (non-fatal heart attack, non-fatal stroke)” value was “significant increase in the risk of serious heart events”.
